Source: patent US10188659B2, “IGF-1R signaling pathway inhibitors useful in the treatment of neurodegenerative diseases” (YISSUM RESEARCH DEVELOPMENT COMPANY OF THE HEBREW …, priority 2013, dated 2019)
Values joined by “and” are separate entries in the source; they are usually repeats but may differ in a detail not shown here. Identical values can stand only once.

What was measured:
Aβ [1] = experiment: Aβ immunofluorescence in worms; type: in vivo, Caenorhabditis elegans; conditions: immuno-fluorescence
Aβ worms (strain CL2006) = experiment: Paralysis assay in Aβ worms; type: in vivo, Caenorhabditis elegans
[2] = tested on: hsp-16.2 promoter (strain CL2070); experiment: hsp-16.2 promoter GFP induction after heat, Western blot; type: in vivo, Caenorhabditis elegans; conditions: CL2070 worms, 33° C. three hours
AKT = experiment: IGF1-induced AKT phosphorylation, Western blot in A375 cells; type: cell-based, human
[3] = tested on: DAF-16, HSF-1 and SKN-1 target genes; experiment: Real-time quantitative PCR of IIS target genes; type: in vivo, Caenorhabditis elegans; conditions: CF512 worms, 600 μM, 3 hours days 1 and 2, vs control
polyQ35-YFP worms = experiment: Motility assay (crawling speed); type: in vivo, Caenorhabditis elegans; conditions: 600 μM daily day 1 to 11
IRS1 and IRS2 = experiment: IRS1/IRS2 Ser-phosphorylation and degradation, Western blot in A375 cells
CF512 worms [4] = experiment: Heat stress assay; type: in vivo, Caenorhabditis elegans; conditions: for stress resistance (survival): 300 μM, 3 hours at day 1, 35° C. for 15 hours
Aβ [5] = experiment: Aβ aggregation, Western blot after high-speed centrifugation; type: in vivo, Caenorhabditis elegans; conditions: CL2006 worms, WB with 6E10 antibody
polyQ40-YFP worms = experiment: polyQ40-YFP foci count; type: in vivo, Caenorhabditis elegans
polyQ40-YFP = polyQ40-YFP aggregation (WB, high-speed pellets, native gel); type: in vivo, Caenorhabditis elegans
CF512 worms [6] = experiment: UV stress assay; type: in vivo, Caenorhabditis elegans; conditions: sub-lethal UV dose
[7] = tested on: hsp-70 promoter (hsp-70p::GFP); experiment: hsp-70 promoter GFP induction after heat, fluorescent microscopy; type: in vivo, Caenorhabditis elegans; conditions: 600 μM, heat stress 33° C., 3 h
[8] = tested on: DAF-16::GFP expressing worms (strain TJ356); experiment: DAF-16 localization assay; type: in vivo, Caenorhabditis elegans; conditions: 300 μM, 6 hours
Procedure: Synchronized TJ356 worms were grown on the EV control bacteria. At the indicated ages (days 1 of adulthood), 25 worms were transferred onto daf-2 RNAi bacteria for the indicated time (6 h). […] (Molecular Probes), Invitrogen, Carlsbad, Calif., USA]. DAPI and GFP signals were visualized using a fluorescent microscope (Leica DM6000 B; Leica, Wetzlar, Germany). […] The worms were let hatched and develop on control bacteria harboring an empty vector (EV) (FIG. 1A) or on daf-2 RNAi bacteria (FIG. 1B). […] The worms were then fixed and stained with DAPI. […] Paralyzed worms were scored daily. […] The worms were placed on plates seeded with EV bacteria and exposed to 35° C. for 15 hours and survival rates were scored by counting the surviving worms. The results of a representative experiment (three repeats were performed) is presented on FIG. 3.

Oc1cc(CNC(=S)/C=C/c2ccc(O)c(O)c2Br)cc(O)c1O [Compound 39]
Aβ amounts and distribution (Aβ [1]): enhanced the amount of Aβ and led to its accumulation in the central part of the animal's body
rate of paralyzed worms at day 12 (Aβ worms (strain CL2006); 600 μM compound (or daf-2 RNAi throughout), day 12 of adulthood): 29%
hsp-16.2 promoter driven GFP level ([2]; 150 μM): no detectable effect
hsp-16.2 promoter driven GFP level ([2]; 300 μM): moderate effect
hsp-16.2 promoter driven GFP level ([2]; 600 μM): remarkably increased the induction of GFP
hsp-16.2 promoter driven GFP level ([2]; 900 μM): lower effect than that of 600 μM
AKT phosphorylation, kinetic experiment (AKT): partial inhibition of AKT phosphorylation
IGF1-induced activation of AKT (phosphorylation on threonine 308 and serine 473) (AKT; A375 cells, short and long exposures): abolished the IGF1-induced activation of AKT
average increase of expression of DAF-16 and SKN-1 target genes [3]: 19-37%
elevation of expression level of hsp-70 [3]: approximately 170%
average crawling speed at day 11 relative to day 1 of adulthood (polyQ35-YFP worms): 32.9%
IRS1 and IRS2 protein levels (IRS1 and IRS2; long exposure (19 hours)): elimination of IRS1 and IRS2
phosphorylation of IRS1 and IRS2 on serine residues (IRS1 and IRS2; short exposure (4 hours)): massive phosphorylation on serine residues
stress resistance (survival) (CF512 worms [4]): elevate stress resistance of CF512 worms
raise of survival rates compared to the untreated population (CF512 worms [4]; 15 hours at 35° C.): 33%
survival rate after heat stress (CF512 worms [4]; 15 hours at 35° C.): 72% and 71.7%
high molecular-weight Aβ aggregates (Aβ [5]): elevated amount of high molecular-weight Aβ aggregates
average number of polyQ40-YFP foci/worm (polyQ40-YFP worms): 52.78 foci/worm
polyQ40-YFP aggregation, YFP fluorescence on native gel (polyQ40-YFP; 1% native gel): did not exhibit elevated rates of polyQ40-YFP aggregation
aggregated polyQ40-YFP in high-speed pellets (polyQ40-YFP; WB after high-speed centrifugation): no increase was seen
SDS resistant polyQ40-YFP aggregates, whole worm homogenates (polyQ40-YFP; WB, GFP antibody, day 2): no such material could be detected
mean survival after UV radiation (days±SEM) (CF512 worms [6]): 8.76 ± 0.21 days
hsp-70 promoter driven GFP fluorescence [7]: elevated GFP fluorescence levels

Oc1cc(CNC(=S)/C=C/c2cc(O)c(O)c(Br)c2)cc(O)c1O [Compound 29]
paralysis rates (Aβ worms (strain CL2006); 300 μM, soaked 3 hours days 1 and 2, then daily 25 μl): increased in reduced rates compared to the untreated control
stress resistance (survival) (CF512 worms [4]): elevate stress resistance of CF512 worms
nuclear localization of DAF-16 (co-localization of DAPI and GFP signals) [8]: confirmed the nuclear localization of DAF-16
